Reference: patent publication US8846704B2, “Thiopyrimidine-based compounds and uses thereof” (YM Biosciences Austraila Pty Ltd, priority 2007, dated 2014)

molecular target: T1, FLT-3 tyrosine kinase (Homo sapiens, UniProt P36888); test: Alphascreen tyrosine kinase enzyme assay, FLT-3; format: biochemical; settings: FLT3; read-out: FMS, FLT3, or HCK IC50_nM (FLT3)
T1 construct: purchased Upstate Cell Signalling Solutions, CA, USA 14-500
T1 sequence (P36888 27-993): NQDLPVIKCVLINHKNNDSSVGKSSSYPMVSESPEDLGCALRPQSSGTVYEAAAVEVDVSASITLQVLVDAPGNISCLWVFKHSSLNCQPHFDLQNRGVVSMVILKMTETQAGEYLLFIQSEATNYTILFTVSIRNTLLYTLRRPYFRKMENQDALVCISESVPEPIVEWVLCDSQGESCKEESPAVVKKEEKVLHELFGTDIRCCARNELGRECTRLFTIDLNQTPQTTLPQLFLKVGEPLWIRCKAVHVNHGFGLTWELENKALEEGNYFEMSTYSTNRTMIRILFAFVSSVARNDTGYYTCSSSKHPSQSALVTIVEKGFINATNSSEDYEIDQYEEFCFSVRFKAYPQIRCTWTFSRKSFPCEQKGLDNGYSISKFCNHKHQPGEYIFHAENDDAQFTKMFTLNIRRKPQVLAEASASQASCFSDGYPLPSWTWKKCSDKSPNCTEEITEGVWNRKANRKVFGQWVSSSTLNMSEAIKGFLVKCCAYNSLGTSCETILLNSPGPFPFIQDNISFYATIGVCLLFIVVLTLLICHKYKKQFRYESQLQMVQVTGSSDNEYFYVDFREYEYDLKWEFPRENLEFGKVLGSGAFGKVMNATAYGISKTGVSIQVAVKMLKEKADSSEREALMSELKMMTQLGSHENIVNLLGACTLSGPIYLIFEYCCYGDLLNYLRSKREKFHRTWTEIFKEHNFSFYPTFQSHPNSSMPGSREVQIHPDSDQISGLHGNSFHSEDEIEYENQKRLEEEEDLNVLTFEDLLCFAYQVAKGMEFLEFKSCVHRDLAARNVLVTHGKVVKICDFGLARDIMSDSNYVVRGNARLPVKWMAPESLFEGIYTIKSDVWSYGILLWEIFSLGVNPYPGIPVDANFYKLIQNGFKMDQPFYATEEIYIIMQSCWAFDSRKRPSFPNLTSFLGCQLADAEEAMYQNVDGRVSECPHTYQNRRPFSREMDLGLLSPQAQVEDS
Protocol: For screening purposes, compounds (in 100% DMSO) were warmed at 37 degrees for at least 20 minutes before use. A […] stock was initially made in assay buffer, where the final concentration of DMSO was 0.3%. The stocks were then diluted in 384 well Optiplates (Packard) where the final concentration of the compound was […].
FLT-3 tyrosine kinase enzyme was purchased from Upstate Cell Signalling Solutions, CA, USA (flt-3 catalog #: 14-500).
Kinase assays were performed in 384 well Optiplates (Packard) using an Alphascreen Protein Tyrosine Kinase PY100 detection kit The compounds were pre-incubated with affinity purified PTK domain in the presence of phosphotyrosine assay buffer (10 mM HEPES, pH 7.5, 100 mM MgCl2, 25 mM NaCl, […] and 0.1% Tween 20) for 20 minutes. The compounds were then incubated with substrate in the presence of ATP. The substrate used was susbtrate-1 with the sequence biotin-EGPWLEEEEEAYGWMDF-NH2 [SEQ. ID. NO. 13] (final concentration […]). For HCK 80 μm ATP was used and incubated for 60 minutes. Alphascreen phosphotyrosine acceptor beads followed by streptavidin donor beads at a concentration of 1/100 in stop buffer were added to each well under subdued light and incubated for 2-3 hours., The Alphascreen plates were read on a Packard Fusion Alpha instrument.

SMILES	IC50
OCc1ccc(Sc2ccnc(Nc3ccc(N4CCOCC4)cc3)n2)cc1 [Compound 67, (4-(2-(4-morpholinophenylao)pyrimidin-4-ylthio)phenyl)methanol]	< 100 nM
OCc1cccc(Sc2ccnc(Nc3ccc(N4CCOCC4)cc3)n2)c1 [Compound 62, (3-(2-(4-Morpholinophenylamino)pyrimidin-4-ylthio)phenyl)methanol]	< 100 nM
N#CCNCc1cccc(Sc2ccnc(Nc3ccc(N4CCOCC4)cc3)n2)c1 [Compound 68, 2-(3-(2-(4-morpholinophenylao)pyrimidin-4-ylthio)benzylao)acetonitrile]	< 500 nM
